The subject of one assay is EV71 virus strain Shenzhen/120F1/09. Briefly: EV71 in-vitro cytopathic effect (CPE) test. The format is cell-based, RD cells of human rhabdomyoma. To be noted: Enterovirus A, 72 h; RD cells, EV71 100 TCID50, 3 days, CCK8 readout; read-out: EC50 by EC71 CPE test, EV71. The protocol: Test of EV71 In-Vitro Cytopathic Effect (CPE) To test the in-vitro antiviral activity and cytotoxicity of a compound to HFMD virus EV71 by means of cytopathic effect (CPE) test. […] Cell line: RD cells of human rhabdomyoma • 3. Cell culture media: DMEM medium added with 10% serum, Penicillin/Streptomycin and L-[…]×) • 4. […] Cell inoculation: digest off the RD cells from the attached state, then dilute them with culture medium to a density of 80000/ml and inoculate 100 μl into the micro wells the 96-well plate. • 2. Dilution of compound: • Step 1: prepare the dry powder of a compound to test into a 10 mM solution in DMSO. Then dilute the compound by three times to eight concentration points. Dilute the reference compounds with the same method. • Step 2: further dilute the diluted solution of the compound in DMSO with cell culture medium. Add 10 μl DMSO solution for each well into 240 μl culture medium. • 3. Add the diluted compound solution by 50 μl each well into the 96-well plate inoculated with cells (double holes, final concentration of DMSO is 1%). • 4. Dilution of virus: dilute EV71 virus solution by 10000 times to a concentration of 100 TCID50/50 μl/. Add the diluted virus solution by 50 μl each well into the 96-well plate. Prepare another 96-well plate to replace the virus with culture medium and similarly inoculate the cells. Add the compound to test the toxicity of compound on cells. • 5. Cultivate the 96-well plate 3 days at the conditions of 37° C. and 5% CO2. • 6. EC50 and CC50 tests: add the cellular activity test reagent CCK8 into the micro-wells by 20 μl/well. Use ELIASA to read the absorbancy at the wavelength of 450 nm and 630 nm. • 7.
Take `O=S1(=O)N(CCOCCOc2ccc(-c3ccc(Cl)cc3)cc2)CCN1c1ccncc1` [Embodiment 13, 2-(2-(2-((4′-chloro-[1,1′-biphenyl]-4-yl)oxy)ethoxy)ethyl)-5-(pyridin-4-yl)-1,2,5-thiadiazolidine-1,1-dioxide]: the EC50 fell in the range of 100 to 500 nM.

Take `CCO/N=C/c1ccc(OCCCCCN2CCN(c3ccnc(C)c3)S2(=O)=O)cc1` [Embodiment 32, (E)-4-((5-(5-(2-methylpyridin-4-yl)-1,1-dioxide-1,2,5-thiadiazol-2-yl)-pentyl)-oxy)-benzaldehyde-O-ethyl ketoxime]: the EC50 is < 50 nM.

Turning to `CCn1nnc(-c2ccc(OCCCCCN3CCN(c4ccncc4)S3(=O)=O)cc2)n1` [Embodiment 11, 2-(5-(4-(2-ethyl-2H-tetrazol-5-yl)-phenoxy)pentyl)-5-(pyridin-4-yl)-1,2,5-thiadiazolidine-1,1-dioxide], the EC50 fell in the range of 50 to 100 nM.

Turning to `Cc1nc(-c2ccc(OCCCCCN3CCN(c4ccnc(N)c4)S3(=O)=O)cc2)no1` [Embodiment 69], the EC50 is < 50 nM.

Take `CCn1nnc(-c2ccc(OCCC(C)(C)CCN3CCN(c4ccnc(N)c4)S3(=O)=O)cc2)n1` [Embodiment 76, 4-(5-(5-(4-(2-ethyl-tetrazol-5-yl)-phenoxy)-3,3-dimethyl-pentyl)-1,1-dioxo-1,2,5-thiadiazolidine-2-yl)-pyridin-2-amine]: the EC50 was < 50 nM.

In the case of `CCO/N=C/c1ccc(OCCC(C)CCN2CCN(c3ccncc3)S2(=O)=O)cc1` (stereo not drawn) [Embodiment 14, (E)-4-((5-(1,1-dioxo-5-(pyridin-4-yl)-1,2,5-thiadiazolidine-2-yl)-3-methyl-pentyl)-oxy)-benzaldehyde-O-ethyloxime], the EC50 is < 50 nM.

For the molecule `CCO/N=C1\CCc2cc(OCCCCCN3CCN(c4ccnnc4)S3(=O)=O)ccc21` [Embodiment 70], the EC50 fell in the range of 100 to 500 nM.

For `CCO/N=C1\CCc2cc(OCCCCCN3CCN(c4ccnc(NC)c4)S3(=O)=O)ccc21` [Embodiment 50, (E)-2-(5-((1-(ethoxy-imino)-2,3-dihydro-1H-inden-5-yl)-oxy)-pentyl)-5-(2-(methylamino)-pyridin-4-yl)-1,2-thiadiazolidine-1,1-dioxide], the EC50 is < 50 nM.

Take `CCO/N=C1\CCc2cc(OCCCCCN3CCN(c4ccnc(N)c4)S3(=O)=O)cc(F)c21` [Embodiment 59]: the 50% effective concentration (EC50) was < 50 nM.

As for `CCc1noc2cc(OCCCCCN3CCN(c4ccnc(N)c4)S3(=O)=O)ccc12` [Embodiment 62, 2-(2-amino-pyridin-4-yl)-5-(5-((3-ethyl-benzo[d]isoxazol-6-yl)-oxy)-pentyl)-1,2,5-thiadiazolidine-1,1-dioxide], the EC50 is 100 to 500 nM.

On to `CCn1nnc(-c2ccc(OCCC3(CCN4CCN(c5ccnc(N)c5)S4(=O)=O)CC3)cc2)n1` [Embodiment 73, 2-(2-amino-pyridin-4-yl)-5-(2-(1-(2-(4-(2-ethyl-2H-tetrazol-5-yl)-phenoxy)-ethyl)-cyclic propyl)-ethyl)-1,2,5-thiadiazolidine-1,1-dioxide], for which the EC50 is < 50 nM.

Regarding `CCOc1noc2cc(OCCCCCN3CCN(c4ccnc(NC)c4)S3(=O)=O)ccc12` [Embodiment 18, 2-(5-((3-ethoxy-benzo[d]isoxazol-6)-oxo)-pentyl)-5-(2-(methylamino)-pyridine-4)-1,2,5-thiadiazoline-1,1-dioxide], the EC50 was < 50 nM.

Take `CCO/N=C(\CC)c1ccc(OCCCCCN2CCN(c3ccnc(N)c3)S2(=O)=O)cc1` [Embodiment 54, (E)-2-(2-amino-pyridin-4-yl)-5-(5-(4-(1-(ethoxyimino)-propyl)-phenoxy)-pentyl)-1,2,5-thiadiazolidine-1,1-dioxide]: the concentration for a half-maximal effect (EC50) fell in the range of 500 to 1000 nM.

Take `CCO/N=C/c1ccc(OCCCCCN2CCN(c3ccc(Cl)nn3)S2(=O)=O)cc1` [Embodiment 34, (E)-4-((5-(5-(6-chloro-pyridazin-3-yl)-1,1-dioxide-1,2,5-thiadiazolidine-2-yl)-pentyl)-oxy)-benzaldehyde-O-ethyl ketoxime]: the EC50 lay within 500 to 1000 nM.

`Nc1cc(N2CCN(CCCCCOc3ccc(C=O)cc3)S2(=O)=O)ccn1` [Embodiment 24, 4-((5-(5-(2-aminopyridin-4-yl)-1,1-dioxide-1,2,5-thiadiazolidine-2-yl)-pentyl)-oxy)-benzaldehyde]: the half-maximal effective concentration (EC50) lay within 500 to 1000 nM.

`CCO/N=C1\CCCc2cc(OCCCCCN3CCN(c4ccnc(N)c4)S3(=O)=O)ccc21` [Embodiment 65]: the EC50 was 100 to 500 nM.

On to `CC(C)O/N=C1\CCc2cc(OCCCCCN3CCN(c4ccnc(N)c4)S3(=O)=O)ccc21` [Embodiment 58], for which the concentration giving a half-maximal response (EC50) is < 50 nM.

As to `CCc1cc(-c2ccc(OCCCCCN3CCN(c4ccnc(N)c4)S3(=O)=O)cc2)no1` [Embodiment 67, 2-(2-amino-pyridin-4-yl)-5-(5-(4-(5-ethylisoxazole-3-yl)-phenoxy)-pentyl)-1,2,5-thiadiazolidine-1,1-dioxide], the EC50 was < 50 nM.

With `CC(C)n1nnc(-c2ccc(OCCCCCN3CCN(c4ccnc(N)c4)S3(=O)=O)cc2)n1` [Embodiment 60], the EC50 was < 50 nM.

In the case of `CCOc1noc2cc(OCCC(F)CCN3CCN(c4ccncc4)S3(=O)=O)ccc12` (stereo not drawn) [Embodiment 72, 2-(5-((3-ethoxy-benzo[d]isoxazole-6-yl)-oxy)-3-fluoro-pentyl)-5-(pyridin-4-yl)-1,2,5-thiadiazolidine-1,1-dioxide], the EC50 fell in the range of 50 to 100 nM.

`CCO/N=C/c1ccc(OCCCCCN2CCN(c3ccnc(N)c3)S2(=O)=O)cn1` [Embodiment 56, (E)-5-((5-(5-(2-amino-pyridin-4-yl)-1,1-dioxide-1,2,5-thiadiazolidine-2-yl)-pentyl)-oxy)-picolinaldehyde-O-ethyl ketoxime]: the EC50 lay in the range of 50 to 100 nM.

Consider `Nc1cc(N2CCN(CCCCCOc3ccc(-c4ccc(Cl)cc4)cc3)S2(=O)=O)ccn1` [Embodiment 16, 2-(2-aminopyridine-4-yl)-5-(5-((4′-chloro-[1,1′-biphenyl]-4-yl)-oxy)-pentyl)-1,2,5-thiadiazolidine-1,1-dioxide], for which the EC50 was < 50 nM.

Turning to `CCO/N=C1\CCc2cc(OCCCCCN3CCN(c4ccc(N)nc4)S3(=O)=O)ccc21` [Embodiment 47], the EC50 fell in the range of 500 to 1000 nM.

For the molecule `CCO/N=C/c1ccc2c(c1)CCC(CCCCN1CCN(c3ccncc3)S1(=O)=O)O2` (stereo not drawn) [Embodiment 21, (E)-2-(4-(1,1-dioxo-5-(pyridin-4-yl)-1,2,5-thiadiazolidine-2-yl)-butyl)-chroman-6-formaldehyde-O-ethyloxime], the EC50 is < 50 nM.

As to `CCO/N=C/c1ccc(OCCCCCN2CCN(c3ccncc3)S2(=O)=O)cc1` [Embodiment 7], the half-maximal effective concentration (EC50) was < 50 nM.

Consider `CCO/N=C/c1ccc(OCCCCCN2CCN(c3ccnc(NCCO)c3)S2(=O)=O)cc1` [Embodiment 40, (E)-4-((5-(5-(2-((2-hydroxyethyl)-amino)-pyridin-4-yl)-1,1-dioxide-1,2,5-thiadiazolidine-2-yl)-pentyl)-oxy)-benzaldehyde-O-ethyl ketoxime], for which the EC50 is < 50 nM.

Still in this assay, the particulars now being: RD cells, EV71 100 TCID50, 3 days, CCK8 readout; read-out: EC50 by EC71 CPE test, EV71.
With “(S,E)-2-(2-aminopyridin-4-yl)-5-(5-((1-(ethoxy-imino)-2,3-dihydro-1H-inden-5-yl)-oxy)-3-methylpentyl)-1,2,5-thiadiazolidine-1,1-dioxide and (R,E)-2-(2-aminopyridin-4-yl)-5-(5-((1-(ethoxy-imino)-2,3-dihydro-1H-inden-5-yl)-oxy)-3-methylpentyl)-1,2,5-thiadiazolidine-1,1-dioxide [Embodiment 29]”, the EC50 is < 50 nM.

Values taken from patent US9988361B2, “Anti-enterovirus 71 thiadiazolidine derivative” (JIANGSU KANION PHARMACEUTICAL CO. LTD, priority 2014, dated 2018).
